Groups on a side chain read outwards from the residue. Primed or numbered codes have the meaning given here. No end group written: not given here. *: point of attachment. DOPE = CCCCCCCC/C=C\CCCCCCCC(=O)OC[C@H](COP(=O)(O)OCCN*)OC(=O)CCCCCCC/C=C\CCCCCCCC; S1 PEG = not defined here; PEG6′ = not defined here; Mal = not defined here; Mal″ = maleimide; βAla = NCCC(=O)O
What was measured:
[1] = tested on: Miltenberger Antibody Positive Panel (polyclonal sera and monoclonal antibodies); experiment: Reactivity of construct-modified RBCs against the Miltenberger Antibody Positive Panel; assay type: cell-based, human; set-up: key: 0 or ‘−’=no agglutination; 0 or ‘−’=no agglutination; 1+ or 3=very weak agglutination; 1+ or 3=very weak agglutination; 2+ or 5=weak agglutination; 2+ or 5=weak agglutination; 3+ or 8=moderate strong agglutination; 3+ or 8=moderate strong agglutination; 4+ or 10/12=strong agglutination; 4+ or 10/12=strong agglutination; 4+ or 10/12=strong agglutination
Description: Red blood cells are modified by mixing 1 part by volume of washed packed red blood cells with 1 part by volume of peptide-lipid construct dispersed at a concentration of 10 to 1000 μg/ml in cell media (Celpresol™).
(§1) The suspensions are either: • 1. incubated for 2 hours at 37° C. before being washed and suspended in a cell medium for serological analysis at a concentration of 0.8 to 3% (Method 1); or • 2. incubated for 3 to 4 hours at room temperature (circa 25° C.) followed by 18 hours at 4° C. before being washed and suspended in a cell medium for serological analysis at a concentration of 0.8 to 3% (Method 2).
(§2) Serological reactions are graded or scored by either of two established systems (0 or ‘−’=no agglutination, 1+ or 3=very weak agglutination, 2+ or 5=weak agglutination, 3+ or 8=moderate strong agglutination, 4+ or 10/12=strong agglutination)
(§3) Serological platforms used are Tube (addition of reagents and reactants into plastic or glass serology tubes and after appropriate incubations, washing and centrifugation observing reactions macroscopically by eye and a 10× magnification eyepiece and scoring) and BioVue™ (addition of reactants into cassettes containing beads (including some reactants) and after appropriate incubations and centrifugation observing the reaction patterns traped within the Gel matrix). BioVue is the serological column agglutination platform of Ortho-Clinical Diagnostics.

[2] = tested on: sera reactive with modified RBCs; experiment: Neutralisation of reactive sera with peptide and retest against modified RBCs (BioVue cards); assay type: cell-based, human; set-up: key: 0 or ‘−’=no agglutination; 0 or ‘−’=no agglutination; 1+ or 3=very weak agglutination; 1+ or 3=very weak agglutination; 2+ or 5=weak agglutination; 2+ or 5=weak agglutination; 3+ or 8=moderate strong agglutination; 3+ or 8=moderate strong agglutination; 4+ or 10/12=strong agglutination; 4+ or 10/12=strong agglutination; 4+ or 10/12=strong agglutination; conditions: for reactivity score, serum + peptide: RBCs modified at 500 μg/ml (Method 1)
Description: as §1, §2, §3
Where false positives were observed these could be substantially eliminated by pre-treatment of the sample of serum with the peptide of the peptide-lipid constructs (Table 10 and 11).

[3] = MUT constructs, μg/ml used: M1 500, M2 500, M3 1000, M13 250, M21 200
[4] = MUR constructs, RBCs modified at 100 ug/ml

Substance | reactivity score of modified RBCs vs 2 T217 [1, 3] | reactivity score of modified RBCs vs 3 T165 [1, 3] | reactivity score of modified RBCs vs 4 T7202 [1, 3] | reactivity score of modified RBCs vs 6 T6025 [1, 3] | reactivity score of modified RBCs vs 7 T8445 [1, 3] | reactivity score of modified RBCs vs 8 T5896 [1, 3] | reactivity score of modified RBCs vs 9 MIII monoclonal antibody [1, 3] | reactivity score of modified RBCs vs 10 Mia monoclonal antibody [1, 3] | reactivity score of modified RBCs vs 11 Mur monoclonal antibody [1, 3] | reactivity score of modified RBCs vs 12 Gam monoclonal antibody [1, 3] | reactivity score of modified RBCs vs 2 T217 [1, 4] | reactivity score of modified RBCs vs 3 T165 [1, 4] | reactivity score of modified RBCs vs 4 T7202 [1, 4] | reactivity score of modified RBCs vs 6 T6025 [1, 4] | reactivity score of modified RBCs vs 7 T8445 [1, 4] | reactivity score of modified RBCs vs 8 T5896 [1, 4] | reactivity score of modified RBCs vs 9 MIII monoclonal antibody [1, 4] | reactivity score of modified RBCs vs 10 Mia monoclonal antibody [1, 4] | reactivity score of modified RBCs vs 11 Mur monoclonal antibody [1, 4] | reactivity score of modified RBCs vs 12 Gam monoclonal antibody [1, 4] | also measured
DOPE-PEG6-βAla-Mal-21MUTK (SQTNDKHKRDC([Mal″-βAla-PEG6′-DOPE])) [M21] | 0 | 8 | 0 | 8 | 0 | 0 | 0 | 0 | 0 | 3 |  |  |  |  |  |  |  |  |  |  | reactivity score of modified RBCs vs 15 TAP2 [1, 3]: 5
DOPE-PEG6-βAla-Mal-13MUTK (SSQTNDKHKRDTYC([Mal-βAla-PEG6′-DOPE]); reading uncertain; also: printed as DOPE-PEG6-βAla-Mal-13MUTK) [M13] | 8 | 0 | 8 | 8 | 0 | 3 | 0 | 0 | 0 | 0 |  |  |  |  |  |  |  |  |  |  | reactivity score of modified RBCs vs 13 BoxH [1, 3]: 8; reactivity score, serum alone ([2]; serum #3, RBCs modified at 500 μg/ml (Method 1)): 8; reactivity score, serum + peptide ([2]; serum #3 neutralised with peptide SSQTNDKHKRDTY): 0; reactivity score, serum alone ([2]; serum #34, RBCs modified at 500 μg/ml (Method 1)): 8; reactivity score, serum + peptide ([2]; serum #34 neutralised with peptide SSQTNDKHKRDTY): 0; reactivity score, serum alone ([2]; serum #37, RBCs modified at 500 μg/ml (Method 1)): 8; reactivity score, serum + peptide ([2]; serum #37 neutralised with peptide SSQTNDKHKRDTY): 0; reactivity score, serum alone ([2]; serum #42, RBCs modified at 500 μg/ml (Method 1)): 8; reactivity score, serum + peptide ([2]; serum #42 neutralised with peptide SSQTNDKHKRDTY): 0
M16: DOPE peptide-lipid construct, Mur peptide ThrTyrProAlaHisThrAlaAsnGluVal with terminal Cys, S1 PEG (Table 7) (TYPAHTANEVC([S1 PEG-DOPE]); reading uncertain) |  |  |  |  |  |  |  |  |  |  | 0 | 10 | 5 | 5 | 12 | 0 | 0 | 0 | 0 | 0 | reactivity score of modified RBCs vs 13 BoxH [1, 4]: 0
DOPE-PEG6-βAla-Mal-18Mur (PAHTANEVC([Mal″-βAla-PEG6′-DOPE])) [M18] |  |  |  |  |  |  |  |  |  |  | 0 | 10 | 0 | 10 | 8 | 0 | 0 | 0 | 0 | 0 | 
